The record followed here is patent publication US20110124741A1, “RADIOSENSITIZER COMPOSITIONS COMPRISING SCHISANDRA CHINENSIS(TURCZ.)BAILL AND METHODS FOR USE” (ETEN BIOTECHNOLOGY LTD., CO., priority 2009, published 2011).

Test [1] relates to HepG2 cells. The test is described as follows: Western blot of apoptosis-related proteins (Bcl-2, p21, caspase 9 cleaved form, caspase 3 cleaved form). The settings on record: 12 μg/ml in combination with 8 Gy. Type of test: cell-based, human. The protocol:
HepG2 cells were seeded in 6-cm dish (2.5×10^5 cells/dish) for 24 hours of incubation. […] The cells were exposed at 8Gy of radiation (Linear accelerator, Philips SL-18), and incubated for another 48 hours. After collection, the cells were washed by PBS for three times, and then centrifuged at 360×g for 5 min. After removing the supernatant, 120 μl CelLytic-M (Sigma) and 1 μl Protease Inhibitor Cocktail (Sigma) were added into the pellet to suspend the cells and then the suspension was incubated at 4° C. for 30 min. The total protein was collected from the supernatant by centrifugation at 27210×g for 10 min.
[…] protein was loaded to run an SDS-PAGE. The gel was then transferred to PVDF and immersed into TTBS solution (2.42 g Tris base/8 g NaCl/0.1% Tween-20/per liter) containing 5% […] milk for blocking. The membrane was reacted with each primary antibody against p21, Bcl-2, caspase 9 (cleaved form), caspase 3 (cleaved form) and β-actin overnight at 4° C. After the reaction, the membrane was washed by TTBS solution three times, and then reacted with appropriate secondary antibody for another 30-min incubation. […] The bands were quantified by GE ImageMaster 2D Platinum Software. […]
The expression level of apoptosis protein in HepG2 was also detected by western blot. […]

In test [2] the test system is HepG2 cells. The experiment in a line: Annexin V-FITC/PI staining apoptosis assay by flow cytometry, with 8 Gy radiation. Type of test: cell-based, human. The text has this:
Annexin V is a 35-36 kDa Ca2+ dependent phospholipid-binding protein that has a high affinity for the membrane phospholipid phosphatidylserine (PS), and binds to cells with exposed PS. Since externalization of PS occurs in the earlier stages of apoptosis, Annexin V staining can identify apoptosis at an earlier stage than assays based on nuclear changes such as DNA fragmentation. A vital dye such as propidium iodide (PI) is typically used in conjunction with Annexin V to identify the viability of the cells. For example, cells that are considered viable are Annexin V and PI negative; cells that are in early apoptosis are Annexin V positive and PI negative; and cells that are in late apoptosis or already dead are both Annexin V and PI positive, wherein the membranes of dead and damaged cells are permeable to PI. The Annexin V staining assay was performed by Annexin V-FITC-Kit purchased from Beckman Coulter, Inc (U.S.A). The protocol was conducted according to the manufacturing manuscript.
HepG2 cells were seeded in 6-cm dish (2.5×10^5 cells/dish) for 24 hours of incubation. Various concentration of ES800 (40 or 80 μg/ml) were added into the culture medium, and then incubated for another 24 hours, wherein 0.008% DMSO was added to the control group. The cells were exposed at 8 Gy of radiation (Linear accelerator, Philips SL-18), and incubated for another 48 hours. After collection, the cells were washed by pre-cold PBS and centrifuged at 500×g. The supernatant was removed and the cells were re-suspended with binding buffer. 1 μl Annexin V-FITC solution and 5 μl PI solution were added into the cell suspension and reacted away from light on ice for 15 min. Finally, 400 μl pre-cold binding buffer was added and the samples were analyzed by flow cytometer within 30 min. The percentages of Annexin V^+ and PI^+/− double staining cells were plotted in FIG. 2.
HepG2 cells were seeded in 6-well plate (2.5×10^5 cells/well) for 24 hours of incubation. Various concentrations of ES800 (40 or 80 μg/ml) and Schisandrin B (12 or 24 μg/ml) were added into the culture medium, and then incubated for another 2 hours, wherein control group was added 0.008% DMSO. The cells were exposed at 8 Gy of radiation (Linear accelerator, Philips SL-18), and incubated for another 70 hours. After collection, the cells were washed by pre-cold PBS and centrifuged at 500×g. Following removing the supernatant, the cells were suspended with binding buffer. 1 μl Annexin V-FITC solution and 5 μl PI solution were added into the suspension and the mixture was reacted away from light on ice for 15 min. Finally, 400 μl pre-cold binding buffer was added and the samples were analyzed by flow cytometer within 30 min. The percentages of Annexin V^+ and PI^+/− double staining cells were plotted in FIG. 7.

On to `COc1cc2c(c(OC)c1OC)-c1c(cc3c(c1OC)OCO3)CC(C)C(C)C2` (centres unmarked) [Schisandrin B], for which the “expression level of caspase 3 (cleaved form), compared with radiation alone (FIG. 8)” value in the test with HepG2 cells [1] is given as “significantly higher”. The “apoptosis ratio of HepG2, compared with radiation of 8 Gy alone (FIG. 7)” value in the test with HepG2 cells [2] (24 μg/ml in combination with 8 Gy, 2 h pre-incubation, 70 h after radiation) was “significantly higher”. Also, in the test with HepG2 cells [2] (12 or 24 μg/ml in combination with 8 Gy, 2 h pre-incubation, 70 h after radiation), the “apoptosis ratio of HepG2, compared with the control group (FIG. 7)” value was “significantly higher”. Besides, the “effect on the apoptosis of cancer cells (FIG. 7)” value in the test on HepG2 cells [2] (12 or 24 μg/ml without exposure of radiation) is listed as “no effect”. Further, the “effect in inhibition of the growth of cancer cells, compared with radiation therapy alone (FIG. 7)” value in the test on HepG2 cells [2] (Schisandrin B in combination of radiation therapy) is reported as “enhanced effect”.
